Results: patent US20230210797A1, “PREVENTING AND TREATING HYPOGLYCEMIA” (DIAMYD MEDICAL AB, priority 2019, published 2023)
Entries after “also recorded” stand apart in the source; their conditions may differ.

Columns and labels:
[1] = tested on: glucagon; test: Hypoglycemic clamp: plasma glucagon levels; format: in vivo, human; settings: for Glucagon levels, Change from baseline, Mean (SD) / Glucagon levels, Change from baseline, Median (Min, Max) / Glucagon levels, Observed value, Mean (SD) / Glucagon levels, Observed value, Median (Min, Max): C-peptide undetectable
Protocol: (§1) In order to evaluate the counterregulatory hormone response to hypoglycemia, a hypoglycemic clamp will be performed. The Hypoglycemic Clamp must be performed according to the instructions in the Operations Manual. (Appendix 3)
(§2) The patient should: • Come to the study site following an overnight fast (>10 hours), i.e. the patient may not eat but is permitted to drink water • Not have taken the Remygen and, if applicable, Alprazolam dose in the morning • Not take short acting/direct acting insulin within 6 hours before the investigation. • The patient is allowed to take base-insulin day/night before, but not in the morning before the investigation.
(§3) Patients with CSII (insulin pump) must continue with their basal dose insulin, but not add bolus dose during the last 6 hours before the investigation.
(§4) If a patient has a blood sugar level <4 mmol/L in the morning of the scheduled visit, the patient is allowed to take dextrose tablets and then come to the study site. The patient is allowed to perform the investigation if the blood sugar level is >4 mmol/L.
(§5) In the dose-escalation part of the study, the patient will take study drug 30 min prior to start of the hypoglycemic clamp. In the main study, the study drug will instead be taken after finalization of the hypoglycemic clamp. Baseline blood samples will be obtained for glucose, glucagon, epinephrine, norepinephrine, growth hormone and cortisol. The clamp will then be initiated by an intravenous insulin infusion at a rate of 2 mU×kg^−1×min^−1. Glucose 100 mg/ml will then be administered in variable infusion rates to clamp the blood glucose concentration at 5.5 mmol/land then at 2.5 mmol/land kept stable for 30 min. Blood glucose will be evaluated repeatedly in order to find the optimal glucose infusion rate. Blood sampling to determined levels of counterregulatory hormones as described above will be performed at each of these target levels when a stable glucose concentration has been reached. The insulin infusion will thereafter be terminated and the patient is allowed to eat and will be observed until normoglycemia is achieved. If necessary, additional glucose administration will be given to allow blood glucose concentrations to normalize.
Plasma glucose was first lowered to normoglycemic levels (5.5 mmol/L) and hormone levels monitored, and then to hypoglycemic levels (2.5 mmol/L) and hormone levels monitored. Difference was calculated as a measurement of the response to hypoglycemia.

[2] = tested on: cortisol; test: Hypoglycemic clamp: plasma cortisol levels; format: in vivo, human; settings: for Cortisol levels, Change from baseline, Mean (SD) / Cortisol levels, Change from baseline, Median (Min, Max) / Cortisol levels, Observed value, Mean (SD) / Cortisol levels, Observed value, Median (Min, Max): C-peptide undetectable
Protocol: as §1, §2, §3, §4, §5
Only patients with c-peptide levels that were undetectable (in a standard assay, i.e. <0.01 nmol/L) are included (5 of 6) in the data below.
Plasma levels of glucagon, cortisol, epinephrine, growth hormone and glucose were measured at baseline (increased glucose in T1D subjects). Plasma glucose was first lowered to normoglycemic levels (5.5 mmol/L) and hormone levels monitored, and then to hypoglycemic levels (2.5 mmol/L) and hormone levels monitored. Difference was calculated as a measurement of the response to hypoglycemia.

[3] = Visit 5, 200 mg GABA per day, Event 2.5 mmol/L
[4] = Visit 5, 200 mg GABA per day, Event 5.5 mmol/L
[5] = Visit 5, 200 mg GABA per day, Event Baseline
[6] = Visit 5, 200 mg GABA per day, Event Diff 2.5-5.5 mmol/L
[7] = Visit 7, 600 mg GABA per day, Event 2.5 mmol/L
[8] = Visit 7, 600 mg GABA per day, Event 5.5 mmol/L
[9] = Visit 7, 600 mg GABA per day, Event Baseline
[10] = Visit 7, 600 mg GABA per day, Event Diff 2.5-5.5 mmol/L
[11] = Visit 9, 1200 mg GABA per day, Event 2.5 mmol/L
[12] = Visit 9, 1200 mg GABA per day, Event 5.5 mmol/L
[13] = Visit 9, 1200 mg GABA per day, Event Baseline
[14] = Visit 9, 1200 mg GABA per day, Event Diff 2.5-5.5 mmol/L
[15] = change in levels when clamping to 2.5 mmol/L from 5.5 mmol/L

## NCCCC(=O)O [GABA, Gamma-amino butyric acid]
[1]; [3]
  Glucagon levels, Change from baseline, Mean (SD): 2.12 pmol/L
  Glucagon levels, Change from baseline, Median (Min, Max): 1.60 pmol/L
  Glucagon levels, Observed value, Mean (SD): 4.88 (2.44) pmol/L
  Glucagon levels, Observed value, Median (Min, Max): 4.80 pmol/L
[1]; [4]
  Glucagon levels, Change from baseline, Mean (SD): -0.11 pmol/L
  Glucagon levels, Change from baseline, Median (Min, Max): 0.00 pmol/L
  Glucagon levels, Observed value, Mean (SD): 2.08 (1.33) pmol/L
  Glucagon levels, Observed value, Median (Min, Max): 2.20 pmol/L
[1]; [5]
  Glucagon levels, Change from baseline, Mean (SD): 0.46 pmol/L
  Glucagon levels, Change from baseline, Median (Min, Max): 0.60 pmol/L
  Glucagon levels, Observed value, Mean (SD): 3.92 (1.03) pmol/L
  Glucagon levels, Observed value, Median (Min, Max): 3.60 pmol/L
[1]; [6]
  Glucagon levels, Change from baseline, Mean (SD): 2.23 pmol/L
  Glucagon levels, Change from baseline, Median (Min, Max): 1.85 pmol/L
  Glucagon levels, Observed value, Mean (SD): 2.80 (2.07) pmol/L
  Glucagon levels, Observed value, Median (Min, Max): 2.60 pmol/L
[1]; [7]
  Glucagon levels, Change from baseline, Mean (SD): 1.64 pmol/L
  Glucagon levels, Change from baseline, Median (Min, Max): 1.40 pmol/L
  Glucagon levels, Observed value, Median (Min, Max): 4.20 pmol/L
[1]; [8]
  Glucagon levels, Change from baseline, Mean (SD): -0.66 pmol/L
  Glucagon levels, Change from baseline, Median (Min, Max): -0.60 pmol/L
  Glucagon levels, Observed value, Mean (SD): 1.53 (1.32) pmol/L
  Glucagon levels, Observed value, Median (Min, Max): 0.75 pmol/L
[1]; [9]
  Glucagon levels, Change from baseline, Mean (SD): -0.42 pmol/L
  Glucagon levels, Change from baseline, Median (Min, Max): -0.70 pmol/L
  Glucagon levels, Observed value, Mean (SD): 3.04 (0.66) pmol/L
  Glucagon levels, Observed value, Median (Min, Max): 3.10 pmol/L
[1]; [10]
  Glucagon levels, Change from baseline, Mean (SD): 2.30 pmol/L
  Glucagon levels, Change from baseline, Median (Min, Max): 2.10 pmol/L
  Glucagon levels, Observed value, Mean (SD): 2.87 (1.96) pmol/L
  Glucagon levels, Observed value, Median (Min, Max): 2.95 pmol/L
[1]; [11]
  Glucagon levels, Change from baseline, Mean (SD): 3.16 pmol/L
  Glucagon levels, Change from baseline, Median (Min, Max): 3.30 pmol/L
  Glucagon levels, Observed value, Mean (SD): 5.92 (3.70) pmol/L
  Glucagon levels, Observed value, Median (Min, Max): 5.60 pmol/L
[1]; [12]
  Glucagon levels, Change from baseline, Mean (SD): -0.58 pmol/L
  Glucagon levels, Change from baseline, Median (Min, Max): -0.80 pmol/L
  Glucagon levels, Observed value, Mean (SD): 1.61 (1.18) pmol/L
  Glucagon levels, Observed value, Median (Min, Max): 0.75 pmol/L
[1]; [13]
  Glucagon levels, Change from baseline, Mean (SD): 0.96 pmol/L
  Glucagon levels, Change from baseline, Median (Min, Max): 0.50 pmol/L
  Glucagon levels, Observed value, Median (Min, Max): 3.90 pmol/L
[1]; [14]
  Glucagon levels, Change from baseline, Mean (SD): 3.74 pmol/L
  Glucagon levels, Change from baseline, Median (Min, Max): 3.30 pmol/L
  Glucagon levels, Observed value, Mean (SD): 4.31 (4.33) pmol/L
  Glucagon levels, Observed value, Median (Min, Max): 2.60 pmol/L
[1]; [15]
  Counter regulatory response of Glucagon, effect of GABA treatment: increased
[1]; clamped to 5.5 mmol/L
  Normoglycemic levels of Glucagon, effect of GABA treatment: decrease
[1]; type 1 diabetes individuals with pathologically increased glucagon
  Circulating glucagon concentrations, effect of GABA: lower
[2]; [3]
  Cortisol levels, Change from baseline, Mean (SD): 49.6 nmol/L
  Cortisol levels, Change from baseline, Median (Min, Max): 40.0 nmol/L
  Cortisol levels, Observed value, Mean (SD): 356.2 nmol/L
  Cortisol levels, Observed value, Median (Min, Max): 334.0 nmol/L
[2]; [4]
  Cortisol levels, Change from baseline, Mean (SD): -141.8 nmol/L
  Cortisol levels, Change from baseline, Median (Min, Max): -179.0 nmol/L
  Cortisol levels, Observed value, Mean (SD): 198.8 nmol/L
  Cortisol levels, Observed value, Median (Min, Max): 176.0 nmol/L
[2]; [5]
  Cortisol levels, Change from baseline, Mean (SD): -198.8 nmol/L
  Cortisol levels, Change from baseline, Median (Min, Max): -196.0 nmol/L
  Cortisol levels, Observed value, Mean (SD): 215.0 nmol/L
  Cortisol levels, Observed value, Median (Min, Max): 213.0 nmol/L
[2]; [6]
  Cortisol levels, Change from baseline, Mean (SD): 191.4 nmol/L
  Cortisol levels, Change from baseline, Median (Min, Max): 125.0 nmol/L
  Cortisol levels, Observed value, Mean (SD): 157.4 nmol/L
  Cortisol levels, Observed value, Median (Min, Max): 162.0 nmol/L
[2]; [7]
  Cortisol levels, Change from baseline, Mean (SD): 51.8 nmol/L
  Cortisol levels, Change from baseline, Median (Min, Max): 36.0 nmol/L
  Cortisol levels, Observed value, Mean (SD): 358.4 nmol/L
  Cortisol levels, Observed value, Median (Min, Max): 360.0 nmol/L
[2]; [8]
  Cortisol levels, Change from baseline, Mean (SD): -157.0 nmol/L
  Cortisol levels, Change from baseline, Median (Min, Max): -185.0 nmol/L
  Cortisol levels, Observed value, Mean (SD): 183.6 nmol/L
  Cortisol levels, Observed value, Median (Min, Max): 166.0 nmol/L
[2]; [9]
  Cortisol levels, Change from baseline, Mean (SD): -222.6 nmol/L
  Cortisol levels, Change from baseline, Median (Min, Max): -217.0 nmol/L
  Cortisol levels, Observed value, Mean (SD): 191.2 nmol/L
  Cortisol levels, Observed value, Median (Min, Max): 189.0 nmol/L
[2]; [10]
  Cortisol levels, Change from baseline, Mean (SD): 208.8 nmol/L
  Cortisol levels, Change from baseline, Median (Min, Max): 141.0 nmol/L
  Cortisol levels, Observed value, Mean (SD): 174.8 nmol/L
  Cortisol levels, Observed value, Median (Min, Max): 194.0 nmol/L
[2]; [11]
  Cortisol levels, Change from baseline, Mean (SD): 6.6 nmol/L
  Cortisol levels, Change from baseline, Median (Min, Max): 29.0 nmol/L
  Cortisol levels, Observed value, Mean (SD): 313.2 nmol/L
  Cortisol levels, Observed value, Median (Min, Max): 285.0 nmol/L
[2]; [12]
  Cortisol levels, Change from baseline, Mean (SD): -117.2 nmol/L
  Cortisol levels, Change from baseline, Median (Min, Max): -115.0 nmol/L
  Cortisol levels, Observed value, Mean (SD): 223.4 nmol/L
  Cortisol levels, Observed value, Median (Min, Max): 193.0 nmol/L
[2]; [13]
  Cortisol levels, Change from baseline, Mean (SD): -196.0 nmol/L
  Cortisol levels, Change from baseline, Median (Min, Max): -191.0 nmol/L
  Cortisol levels, Observed value, Mean (SD): 217.8 nmol/L
  Cortisol levels, Observed value, Median (Min, Max): 226.0 nmol/L
[2]; [14]
  Cortisol levels, Change from baseline, Mean (SD): 123.8 nmol/L
  Cortisol levels, Change from baseline, Median (Min, Max): 83.0 nmol/L
  Cortisol levels, Observed value, Mean (SD): 89.8 nmol/L
  Cortisol levels, Observed value, Median (Min, Max): -10.0 nmol/L
[2]; [15]
  Counter regulatory response of Cortisol, effect of GABA treatment: increased
[2]; clamped to 5.5 mmol/L
  Normoglycemic levels of Cortisol, effect of GABA treatment: decrease
[2]; dose escalation part, oral GABA, type 1 diabetes patients with undetectable c-peptide
  Baseline (no clamp) Cortisol levels, effect of GABA treatment: downregulated; also recorded: decrease
